Measurements from USRE37495E1, “Substituted 1-arylpyrazoles” (Bayer Aktiengesellschaft, priority 1993, dated 2002).

Tests used:
Format in all cases: in vivo
[1] = tested on: Phaedon cochleariae larvae; assay: Critical concentration test/root-systemic action, Phaedon; settings: 2.5 ppm active compound in soil, leaves infested after 7 days, evaluated after a further 2 days
Protocol: Critical Concentration Test/Root-Systemic Action.
Test insect: Phaedon cochleariae larvae
(§1) Solvent: 3 parts by weight of acetone
(§2) Emulsifier: 1 part by weight of alkylaryl polyglycol ether
(§3) To produce a suitable preparation of active compound, 1 part by weight of active compound is mixed with the stated amount of solvent, the stated amount of emulsifier is added and the concentrate is diluted with water to the desired concentration.
(§4) The preparation of active compound is intimately mixed with soil. The concentration of the active compound in the preparation is of practically no importance, only the amount by weight of active compound per unit volume of soil, which is given in ppm (=mg/l), being decisive. The treated soil is transferred into pots and these are planted with cabbage (Brassica oleracea). The active compound can in this way be taken up from the soil by the roots of the plants and be transferred into the leaves.
(§5) After a further 2 days, the evaluation is made by counting or estimating the dead animals. The root-systemic action of the active compound is deduced from the mortality figures. It is 100% if all test animals have been killed and 0% if just as many test insects are still alive as in the case of the untreated control.

[2] = tested on: Blattella germanica or Periplaneta americana; assay: Cockroach test; settings: after 6 hours, filter paper
Protocol: Test animals: Blattella germanica or Periplaneta americana
(§6) 35 parts by weight of ethylene glycol monomethyl ether
(§7) 35 parts by weight of nonylphenol polyglycol ether
(§8) To produce a suitable formulation, three parts by weight of active compound are mixed with seven parts of the abovementioned solvent/emulsifier mixture, and the emulsion concentrate thus obtained is diluted with water to the particular desired concentration.
2 ml of this preparation of active compound are pipetted onto filter paper discs (φ9.5 cm) located in Petri dishes of a suitable size. After the filter paper discs have dried, 5 test animals (Blattella germanica or Periplaneta americana) are introduced into the Petri dish, which is covered.
After 6 hours, the effectiveness of the preparation of active compound is determined. The effectiveness is expressed in %. 100% means that all cockroaches have been killed; 0% means that none of the cockroaches have been killed.

Lucilia cuprina larvae = assay: Blowfly larvae test; settings: after 24 hours
Protocol: Test animals: Lucilia cuprina larvae
35 parts by weight of ethylene glcyol monomethyl ether
as §7
To produce a suitable preparation of active compound, three parts by weight of active compound are mixed with seven parts by weight of the abovementioned mixture and the emulsion concentrate thus obtained is diluted with water to the particular desired concentration.
About 20 Lucilia cuprina res. larvae are introduced into a test tube which contains approx. 1 cm^3 of horse meat and 0.5 ml of the preparation of active compound. After 24 hours, the effectiveness of the preparation of active compound is determined. 100% means that all blowfly larvae have been killed; 0% means that none of the blowfly larvae have been killed.

[3] = tested on: black bean aphid (Aphis fabae); assay: Aphis test (systemic action); settings: concentration of active compound 0.02%, after four days, bean plants watered (systemic)
Protocol: Aphis Test (Systemic Action)
(§9) Solvent: 7 parts by weight of dimethylformamide
as §2
(§10) To produce a suitable preparation of active compound, 1 part by weight of active compound is mixed with the stated amount of solvent and the stated amount of emulsifier, and the concentrate is diluted with water to the desired concentration.
Bean plants (Vicia faba) which are heavily infested with the black bean aphid (Aphis fabae) are each watered with 20 ml of preparation of active compound of the desired concentration in such a way that the preparation of active compound penetrates into the soil without wetting the shoot. The active compound is taken up by the roots and passes to the shoot.
(§11) After the specified period of time, the destruction in % is determined. 100% means that all the aphids have been killed; 0% means that none of the aphids have been killed.

[4] = tested on: All stages (eggs, larvae, pupae and adults) of Ctenocephalides felis; assay: Flea in-vitro test (all development stages); settings: active compound concentration 10% in blood meal
Protocol: Flea In-Vitro Test (All Development Stages)
Test subject: All stages (eggs, larvae, pupae and adults) of Ctenocephalides felis.
Blood meal is dried overnight in a shallow dish at approximately 70° C. and then screened using a mesh size of 0.63 mm.
1.8 g portions of this prepared blood meal are transferred into plastic Petri dishes of φ9.8 cm.
Using an Eppendorf pipette, 0.2 ml of substance are placed on the 1.8 g of blood meal (dilution factor 1:10).
That is to say, at a use concentration of 1 ppm, the aqueous solution must have a concentration of 10 ppm. The solution is distributed dropwise over the entire surface of-the blood meal.
These prepared dishes are allowed to dry overnight. Using a suitable device, the substance, which is now in the form of dried lumps of blood meal, is crushed and distributed uniformly in the Petri dish by rotating movements. A spatula-full of sieved flea eggs (which are obtained from artificially infected cats) is now added to these prepared test dishes. The dish is sealed with Parafilm and shaken vigorously.
Incubation is effected at 25° C. and the relative atmospheric humidity of 85%. At certain intervals, the dishes are examined for development stages of fleas.
Test criteria: The criteria used for the in-vitro activity of a substance is the inhibition of flea development or a standstill of the development before the adult stage is reached. […]

[5] = tested on: peach aphid (Myzus persicae); assay: Myzus test (leaf dip); settings: concentration of active compound 0.1%, after one day, cabbage leaves dipped
Protocol: as §9, §2, §10
Cabbage leaves (Brassica oleracea) which are heavily infested with the peach aphid (Myzus persicae) are treated by being dipped into the preparation of active compound of the desired concentration.
as §11

[6] = tested on: Musca domestica, strain WHO (N); assay: Fly test; settings: concentration of active compound 1 ppm, after 6 hours, filter paper
Protocol: Test animals: Musca domestica, strain WHO (N)
as §6, §7, §8
2 ml of this preparation of active compound are pipetted onto filter paper discs (φ9.5 cm) located in Petri dishes of a suitable size. After the filter paper discs have dried, 25 test animals are introduced into the Petri dish, which is covered.
After 6 hours, the effectiveness of the preparation of active compound is determined. The effectiveness is expressed in %. 100% means that all flies have been killed; 0% means that none of the flies have been killed.

Myzus persicae = assay: Critical concentration test/root-systemic action, Myzus; settings: 20 ppm active compound in soil, leaves infested after 7 days, evaluated after a further 2 days
Protocol: Critical Concentration Test/Root-Systemic Action
Test insect: Myzus persicae
as §1, §2, §3, §4, §5

| SMILES | degree of destruction [1] | destruction ([2]; concentration of active compound >10 ppm) | destructive activity (Lucilia cuprina larvae; concentration of active compound ≧300 ppm) | destructive activity (Lucilia cuprina larvae; concentration of active compound 1000 ppm) | degree of destruction [3] | degree of destruction ([2]; concentration of active compound 10 ppm) | destruction [4] | degree of destruction [5] | destruction [6] | degree of destruction (Myzus persicae) |
| --- | --- | --- | --- | --- | --- | --- | --- | --- | --- | --- |
| Cc1nn(-c2c(Cl)cc(C(F)(F)F)cc2Cl)c(N)c1SC(C)(F)F [Example 1, 5-amino-3-methyl-4-(1,1-difluoroethylthio)-1-(2,6-dichloro-4-trifluoromethylphenyl)-pyrazole] | 100% | 100% | – | – | – | – | – | – | – | – |
| CC(F)(F)Sc1cnn(-c2c(Cl)cc(C(F)(F)F)cc2NN)c1N [Example 33, 5-amino-4-(1,1-difluoroethylthio)-1-(2-chloro-4-trifluoromethyl-6-hydrazinophenyl)-pyrazole] | 100% | – | 100% | – | – | – | – | – | – | – |
| N#Cc1nn(-c2c(Cl)cc(C(F)(F)F)cc2Cl)c(N)c1[S+]([O-])C(F)(F)F (stereo not drawn) [prior art] | 0% | – | – | 100% | 0% | < 100% | 0% | 0% | < 100% | 0% |
